Legend:
[1] = system: MC-38 cells; test: Evaluation of F-actin morphology (phalloidin staining); format: cell-based, murine; conditions: without heating (no AMF)
Text: To examine the effect of heating and free radicals on the actin cytoskeleton, actin filaments (F-actin) were stained with fluorescent phalloidin. […] In cells subjected to heating and free radicals but still showing phalloidin staining, the actin filaments were further retracted and more condensed compared with cells under heating only. FIG. 8 illustrates a quantification of MC-38 cells with F-actin structure in the above-described morphological analysis. […] In the cells with phalloidin staining, the actin filaments were further retracted and more condensed compared with the hyperthermia only group.
Evaluation of F-actin morphology: The F-actin morphology of MC-38 cells was evaluated by phalloidin staining. MC-38 cells were seeded in 4-compartment cell culture dishes and cultured overnight. The cells were then treated with 300 μg Fe/mL of IONC-AAPH or IONC at 37° C. or under AMF for 90 min. Four hours after the treatment, the cells were fixed, permeabilized, and blocked as described above. Then the cells were incubated with Alexa Fluor 568-labeled phalloidin for 30 min at room temperature, followed by staining with Hoechst 33342 for 10 min at room temperature. Images were collected using a Nikon Al-Rsi confocal microscope.

[2] = system: subcutaneous MC-38 tumor; test: Tumor killing effect in vivo, subcutaneous MC-38 mouse tumor model; design: species or system C57BL/6N mice
Protocol: The antitumor activity of IONC-AAPH in vivo was evaluated with a subcutaneous MC-38 mouse tumor model. The subcutaneous tumor was induced by inoculating MC-38 cells into the right flank of respective C57BL/6N mice. The mice were randomly divided into 6 groups (n=3): (i) saline, (ii) AAPH, (iii) IONC, (iv) IONC-AAPH, (v) IONC+AMF, and (vi) IONC-AAPH+AMF. When the tumor volume reached 150-200 mm^3, the mice were intratumorally injected with saline, AAPH (2 mM), IONC (5 mg Fe/mL), and IONC-AAPH (5 mg Fe/mL), respectively. After injection the mice in IONC+AMF and IONC-AAPH+AMF groups were subjected to AMF for 1 h. The temperature of the tumors injected with IONC or IONC-AAPH increased rapidly and reached above 45° C. within 5 min, as measured by an infrared thermal camera.
After applying AMF, the temperature in the tumor was much higher than in other parts of the body. […]
Tumor killing effect of IONC-AAPH in vivo: All animal work was approved by the Institutional Animal Care and Use Committee (IACUC) of Rice University. […] The direct tumor killing effect of IONC-AAPH treatment was evaluated with subcutaneous tumor-bearing mice. […] The temperature in the tumor was measured using a high-resolution infrared (IR) camera (E95, Teledyne FLIR). The tumor size was measured daily with a digital caliper, and the tumor volume was calculated as follow: volume=length×width^2/2. […]

[3] = system: bone marrow-derived dendritic cells (BMDCs); test: Dendritic cell maturation, coculture with treated MC-38 cells; format: cell-based, C57BL/6N mice; conditions: without AMF
Protocol: Dendritic cells (DCs) are a key type of antigen-presenting cells that play critical roles in initiating and regulating antitumor immune response. To determine if the immunogenic cell death induced by magnetotherapy can activate dendritic cells, bone marrow-derived dendritic cells (BMDCs) were cocultured with IONC-AAPH-treated MC-38 cells, together with the medium containing DAMPs, in a transwell system for 24 h. The maturation of dendritic cells was estimated as the percentage of CD80+CD86+ cells in CD11c+ cells. […] The percentage of mature DCs in IONC and IONC-AAPH groups was 2.1-fold of the blank.
Determination of Dendritic Cell Maturation: The bone marrow-derived dendritic cells (BMDCs) were prepared from the bone marrow of 8-week old C57BL/6N mice according to an established protocol. To determine the stimulatory effect on BMDCs, IONC-AAPH-treated MC-38 cells (together with the medium containing DAMPs) were cocultured with BMDCs for 24 h in a transwell system (pore size=3 μm). BMDCs only (without coculture) were included as the blank groups. The BMDCs were collected, blocked with CD16/CD32 antibody, and stained with PECD11c, FITC-CD80, and APC-CD86. The data were acquired on MA900 Multi-Application Cell Sorter (Sony) and analyzed using FlowJo software (Tree Star).

For `CC(C)(N=NC(C)(C)C(=N)N)C(=N)N.Cl.Cl` [AAPH, 2,2′-azobis(2-amidinopropane) dihydrochloride], the F-actin morphology [1] was “well organized and elongated”, the “tumor tissue damage (H&E, TUNEL)” value ([2]; without AMF) was “no tumor tissue damage” and the tumor weight ([2]; without applying AMF) was “only slightly reduced the tumor weight”. For the same compound, the “effect on DC maturation” value [3] was “did not show a noticeable effect”.

From patent US20260027380A1, “TECHNIQUES FOR MAGNETIC NANOCLUSTER-BASED COMBINATION THERAPY” (William Marsh Rice University, priority 2022, published 2026)
